# Source: US9617286B2, “Fungicide N-[(trisubstitutedsilyl)methyl]-carboxamide derivatives” (BAYER INTELLECTUAL PROPERTY GMBH, priority 2011, dated 2017)
# How the values were obtained:
# [1] = log P by HPLC on reversed-phase column (C 18), EEC Directive 79/831 Annex V.A8; assay type: physicochemical; settings: 40° C., 0.1% aqueous formic acid and acetonitrile, linear gradient 10% to 90% acetonitrile
# Description: In table 1, the log P values were determined in accordance with EEC Directive 79/831 Annex V.A8 by HPLC (High Performance Liquid Chromatography) on a reversed-phase column (C 18), using the method described below:
# Temperature: 40° C.; Mobile phases: 0.1% aqueous formic acid and acetonitrile; linear gradient from 10% acetonitrile to 90% acetonitrile.
# Calibration was carried out using unbranched alkan-2-ones (comprising 3 to 16 carbon atoms) with known log P values (determination of the log P values by the retention times using linear interpolation between two successive alkanones). lambda-max-values were determined using UV-spectra from 200 nm to 400 nm and the peak values of the chromatographic signals.
# [2] = system: Alternaria solani; experiment: In vivo preventive test on Alternaria solani (tomato); settings: preventive spray, 500 ppm of active ingredient, evaluated 7 days after inoculation
# Description: Solvent: 49 parts by weight of N,N-dimethylformamide Emulsifier: 1 part by weight of alkylaryl polyglycol ether To produce a suitable preparation of active compound, 1 part by weight of active compound is mixed with the stated amounts of solvent and emulsifier, and the concentrate is diluted with water to the desired concentration. To test for preventive activity, young plants are sprayed with the preparation of active compound at the stated rate of application. One day after this treatment, the plants are inoculated with an aqueous spore suspension of Alternaria solani. The plants remain for one day in an incubation cabinet at approximately 22° C. and a relative atmospheric humidity of 100%. Then the plants are placed in an incubation cabinet at approximately 20° C. and a relative atmospheric humidity of 96%.
# [3] = system: Pyrenophora teres; experiment: In vivo preventive test on Pyrenophora teres (barley); settings: preventive spray (DMF/alkylaryl polyglycol ether), 500 ppm of active ingredient, evaluated 7-9 days after inoculation
# Description: (§1) Solvent: 49 parts by weight of N,N-dimethylformamide Emulsifier: 1 part by weight of alkylaryl polyglycol ether To produce a suitable preparation of active compound, 1 part by weight of active compound is mixed with the stated amounts of solvent and emulsifier, and the concentrate is diluted with water to the desired concentration. To test for preventive activity, young plants are sprayed with the preparation of active compound at the stated rate of application. One day after this treatment, the plants are inoculated with an aqueous spore suspension of Pyrenophora teres. The plants remain for 48 hours in an incubation cabinet at 22° C. and a relative atmospheric humidity of 100%. Then the plants are placed in a greenhouse at a temperature of approximately 20° C. and a relative atmospheric humidity of approximately 80%.
# [4] = system: Alternaria brassicae; experiment: In vivo preventive test on Alternaria brassicae (leaf spot on radish); settings: preventive spray, 500 ppm of active ingredient, grading 6 days after contamination
# Description: Radish plants (“Pernod Clair” variety), sown in starter cups on a 50/50 peat soil pozzolana substrate and grown at 17° C., are treated at the cotyledon stage by spraying with the active ingredient prepared as described above. Plants, used as controls, are treated with the mixture of acetone/tween/DMSO/water not containing the active material. After 24 hours, the plants are contaminated by spraying the cotyledons with an aqueous suspension of Alternaria brassicae spores (50 000 spores per mL). The spores are collected from a 15-day-old culture. The contaminated radish plants are incubated at 20° C. and at 100% relative humidity. Grading (% of efficacy) is carried out 6 days after the contamination, in comparison with the control plants.
# [5] = system: Septoria tritici; experiment: In vivo preventive test on Septoria tritici (wheat); settings: preventive spray, 500 ppm of active ingredient, grading 24 days after contamination
# Description: Wheat plants (“Scipion” variety), sown in starter cups on a 50/50 peat soil pozzolana substrate and grown at 22° C., are treated at the 1 leaf stage (10 cm height) by spraying with the active ingredient prepared as described above. Plants, used as controls, are treated with the mixture of acetone/tween/DMSO/water not containing the active material. After 24 hours, the plants are contaminated by spraying the leaves with an aqueous suspension of cryopreserved Septoria tritici spores (500 000 spores per mL). The contaminated wheat plants are incubated for 72 hours at 18° C. and at 100% relative humidity, and then for 21 days at 90% relative humidity. Grading (% of efficacy) is carried out 24 days after the contamination, in comparison with the control plants.
# [6] = system: Sphaerotheca fuliginea; experiment: In vivo preventive test on Sphaerotheca fuliginea (powdery mildew on cucurbits); settings: gherkin plants, preventive spray, 500 ppm of active ingredient, grading 12 days after contamination
# Description: Gherkin plants (“Vert petit de Paris” variety), sown in starter cups on a 50/50 peat soil-pozzolana substrate and grown at 24° C., are treated at the Z11 cotyledon stage by spraying with the active ingredient prepared as described above. Plants, used as controls, are treated with the mixture of acetone/tween/DMSO/water not containing the active material. After 24 hours, the plants are contaminated by spraying the cotyledons with an aqueous suspension of Sphaerotheca fuliginea spores (100 000 spores per mL). The spores are collected from infected plants. The contaminated gherkin plants are incubated at about 20° C. and at 70-80% relative humidity. Grading (% of efficacy) is carried out 12 days after the contamination, in comparison with the control plants.
# [7] = system: Puccinia recondita; experiment: In vivo preventive test on Puccinia recondita (brown rust on wheat); settings: preventive spray, 500 ppm of active ingredient, grading 12 days after contamination
# Description: Wheat plants (“Scipion” variety), sown in starter cups on a 50/50 peat soil pozzolana substrate and grown at 22° C., are treated at the 1 leaf stage (10 cm height) by spraying with the active ingredient prepared as described above. Plants, used as controls, are treated with the mixture of acetone/tween/DMSO/water not containing the active material. After 24 hours, the plants are contaminated by spraying the leaves with an aqueous suspension of Puccinia recondita spores (100 000 spores per mL). The spores are collected from an infected plant and are suspended in water containing 2.5 mL/L of Tween 80 at 10%. The contaminated wheat plants are incubated for 24 hours at 20° C. and at 100% relative humidity, and then for 10 days at 20° C. and at 70-80% relative humidity. Grading (% of efficacy) is carried out 12 days after the contamination, in comparison with the control plants.
# [8] = system: Leptosphaeria nodorum; experiment: In vivo preventive test on Leptosphaeria nodorum (wheat); settings: preventive spray, 500 ppm of active ingredient, evaluated 7-9 days after inoculation
# Description: as §1, with “sprayed with a preparation of” for “sprayed with the preparation of”, “suspension of Leptosphaeria nodorum. The plants” for “suspension of Pyrenophora teres. The plants”, “of approximately 22° C. and” for “of approximately 20° C. and”, “of approximately 90%.” for “of approximately 80%.”
Structure (SMILES),logP [1],Efficacy [2] [%],Efficacy [3] [%],Efficacy [4] [%],Efficacy [5] [%],Efficacy [6] [%],Efficacy [7] [%],Efficacy [8] [%]
C[Si](C)(Cc1cccc(Cl)c1)CN(C(=O)c1cccnc1C(F)F)C1CC1 [Example 104],4.16,90,80,,,,,
C[Si](C)(CN(C(=O)c1cccnc1C(F)F)C1CC1)c1cccc2ccccc12 [Example 74],4.04,78,95,,,,,70
C[Si](C)(CN(C(=O)c1cccnc1Cl)C1CC1)c1cc(F)ccc1Cl [Example 50],3.99,,97,75,,98,75,
C[Si](C)(Cc1cc(Cl)cc(Cl)c1)CN(C(=O)c1cccnc1C(F)F)C1CC1 [Example 117],4.77,75,90,,,,,
CC[Si](C)(CN(C(=O)c1cccnc1C(F)F)C1CC1)c1ccccc1Cl (stereo not drawn) [Example 36],4.21,,,90,90,94,81,
C[Si](C)(CNC(=O)c1cccnc1C(F)F)c1cccc(Cl)c1 [Example 29],3.15,95,95,,,,,
C[Si](C)(CN(C(=O)c1nccnc1C(F)(F)F)C1CC1)c1cc(F)ccc1Cl [Example 49],4.59,,97,75,100,,88,
C[Si](C)(CN(C(=O)c1nccnc1C(F)(F)F)C1CC1)c1cccc2ccccc12 [Example 72],4.77,89,95,,,,,80
CC[Si](C)(CN(C(=O)c1nccnc1C(F)(F)F)C1CC1)c1ccccc1Cl (stereo not drawn) [Example 44],4.95,,93,75,86,94,75,
C[Si](C)(CN(C(=O)c1nccnc1C(F)(F)F)C1CC1)c1ccc(F)cc1Cl [Example 52],4.67,,100,100,97,94,,
C[Si](C)(Cc1ccc(Cl)cc1Cl)CN(C(=O)c1cccnc1C(F)F)C1CC1 [Example 110],4.74,70,95,,,,,
C[Si](C)(CNC(=O)c1cccnc1C(F)F)c1cc(Cl)cc(Cl)c1 [Example 63],3.69,95,95,,96,71,97,
C[Si](C)(Cc1ccccc1Cl)CN(C(=O)c1nccnc1C(F)(F)F)C1CC1 [Example 99],4.82,,70,,,,,70

# Second part, led by results:
logP [1],Structure (SMILES),Efficacy [2] [%],Efficacy [3] [%],Efficacy [4] [%],Efficacy [5] [%],Efficacy [6] [%],Efficacy [7] [%],Efficacy [8] [%]
3.44,C[Si](C)(CN(C(=O)c1cccnc1C(F)F)C1CC1)c1ccccc1 [Example 5],,,96,80,89,,
3.72,C[Si](C)(CN(C(=O)c1cccnc1C(F)(F)F)C1CC1)c1ccsc1 [Example 91],78,70,,,,,
4.18,Cc1ccccc1[Si](C)(C)CN(C(=O)c1cccnc1C(F)(F)F)C1CC1 [Example 11],,97,88,,94,88,
4.34,C[Si](C)(CN(C(=O)c1cccnc1C(F)(F)F)C1CC1)c1cc(F)ccc1Cl [Example 48],,97,75,93,98,88,
4.41,Cc1ccccc1[Si](C)(C)CN(C(=O)c1nccnc1C(F)(F)F)C1CC1 [Example 10],,100,88,79,78,,
4.41,C[Si](C)(CN(C(=O)c1cccnc1C(F)(F)F)C1CC1)c1ccc(F)cc1Cl [Example 47],,97,75,93,,,
3.51,C[Si](C)(CN(C(=O)c1cccnc1C(F)F)C1CC1)c1ccccc1F [Example 16],,100,95,71,,,
3.94,C[Si](C)(CN(C(=O)c1cccnc1C(F)F)C1CC1)c1ccccc1C(F)(F)F [Example 56],,100,88,100,83,,
3.73,Cc1ccccc1[Si](C)(C)CN(C(=O)c1cccnc1C(F)F)C1CC1 [Example 12],,97,88,79,,,
3.83,C[Si](C)(CN(C(=O)c1cccnc1C(F)F)C1CC1)c1ccccc1Cl [Example 28],89,100,,,,,
3.27,C[Si](C)(CN(C(=O)c1cccnc1C(F)F)C1CC1)c1ccsc1 [Example 87],88,100,,,,,
4.51,CCc1ccccc1[Si](C)(C)CN(C(=O)c1cccnc1C(F)(F)F)C1CC1 [Example 20],,100,75,93,100,88,
3.89,C[Si](C)(CN(C(=O)c1cccnc1C(F)(F)F)C1CC1)c1ccccc1 [Example 8],,100,88,100,,,
